As a reminder, the melting point is the temperature of the solid-liquid transition.

Consider `COc1ccc(CC2SC(=O)NC2=O)c2c1N(Cc1ccc(N)cc1)C(=O)CC2` (stereo unspecified), for which the melting point fell in the range of 174 to 175 °C.

Consider `O=[N+]([O-])c1cccc(Nc2nc(Cl)nc(Cl)n2)c1`, for which the melting point stood at 173 °C. `CCOc1nn(Cc2ccc(OCc3cccc(-c4ccccc4)n3)cc2)cc1CCC(=O)O` came in with a melting point of 95 to 96 °C.

Regarding `CCCc1cc(NC(=O)N2CCN(c3cc(OC)cc(OC)c3)CC2)c(OC)nc1C`, the melting point lay in the range of 82 to 84 °C.

As to `COc1cc(C(=O)N2CCC(CCN3CCC(C(=O)c4nc5ccccc5n4Cc4ccccn4)CC3)(c3ccccc3)C2)cc(OC)c1OC` (stereo unspecified), the melting point was in the range of 84 to 89 °C.

The molecule `COC(=O)c1ccc(-c2nc(-c3ccc(OC(F)F)cc3)cs2)cc1` came in with a melting point of 146 to 148 °C. `O=C1OC(c2cccc(C(F)(F)F)c2)=NC1=Cc1cccs1` returned a melting point of 200 to 202 °C. `O=C(C[C@@H](CCc1ccccc1)C(=O)O)OCC(Cl)(Cl)Cl` registered a melting point of 59 to 61 °C. In the case of `CSc1ncc(Oc2cnccc2C)c(=O)[nH]1` it was 162 to 164 °C; in that of `COc1ccc(N2CCN(CCC3OCCc4cc(C(N)=O)ccc43)CC2)cc1` (stereo unspecified), 180 to 182 °C. `COC1=C(c2ccc(C)cc2C)C(=O)CCC1` came in with a melting point of 122 to 123 °C. Consider `Cc1cc2c(cc1C(F)(F)F)NC(=O)CC(c1cccc(-n3nncc3CNC3CC3)c1)=N2`, for which the melting point was 181 °C. On to `CCCSc1sc(C(=O)OCC)c2c1-c1[nH]ncc1CC2`, for which the melting point lay in the range of 161 to 162 °C. As for `Cc1ccc(N2C(=O)C(O)=C(C(=O)c3ccc(C(C)C)cc3)C2c2ccc(OC(F)F)cc2)nn1` (stereo unspecified), the melting point was 263 to 265 °C. Regarding `COCCNc1ccc2c(c1)OC(c1ccccc1)C(c1ccc3c(c1)NC(=O)CO3)=C2` (stereo unspecified), the melting point fell in the range of 185 to 192 °C. Turning to `CCN(CC)CCOc1cccc2c1c1ccccc1n2Cc1ccccc1`, the melting point was in the range of 79 to 80.5 °C. Turning to `COc1ccc(/C=C/c2cc(/C=C/c3c[nH]c4ccccc34)n[nH]2)cc1OCc1ccccn1`, the melting point lay in the range of 232 to 243 °C. In the case of `C#CCN1C(=O)C(C)(C)NC(C)(C)C1=O`, the melting point lay in the range of 77 to 80 °C. Molecule `CCCOCc1nc(C(C)(C)O)c(C(=O)OCCC)[nH]1` registered a melting point of 72 to 73 °C. For `OCc1ccc(-c2ccc(O)cc2)c(-c2ccc(O)cc2)c1`, the melting point was determined as 214 °C. On to `Cc1nn(-c2cc(C(=O)NS(=O)(=O)N(C)C(C)C)c(Cl)cc2F)c(=O)n1C(F)F`, for which the melting point was in the range of 118 to 122 °C. On to `COc1ccc(CN2CC(=O)Nc3cccc(Cl)c3C2=O)c(OC)c1`, for which the melting point lay within 230 to 231 °C. `CCOC(=O)CNC(=O)c1nc2ccc(Cl)nn2c1C`: the melting point is 192 to 195 °C.

For `Cc1scc2c1N(C(=O)NCCN1CCC(CCCN3CCCCC3)CC1)c1ccccc1NC2=O`, the melting point fell in the range of 170 to 171 °C. As to `Nc1ccc(-c2cc3c(Nc4ccc(Cl)cc4F)ncnc3o2)cc1`, the melting point is 229 to 232 °C. Consider `O=C(CN1CCCC1=O)N1CCN(C(=O)CN2CC(c3ccc(Cl)cc3)CC2=O)CC1` (stereo unspecified), for which the melting point was in the range of 224 to 226 °C.

In turn, `O=C(CC1CCCOC1=O)c1ccccc1` (stereo unspecified) came in with a melting point of 93 to 94 °C. Consider `CC1(C)CC(C)(C)CC(CCCc2ccccc2)(NC(=O)CCl)C1`, for which the melting point was in the range of 83 to 85 °C. On to `CCCCN(Cc1ccc(-c2ccccc2C#N)cc1)C(=O)Cc1ccccc1C(=O)O`, for which the melting point fell in the range of 137 to 139 °C. In the case of `COc1ccc(Oc2nnn[nH]2)cc1` it was 150 °C.

Take `Cn1cc(OS(C)(=O)=O)c(=O)c2ccc(S(C)=O)cc21` (stereo unspecified): the melting point was 248 °C. Then `Nc1ncnc2c1nc(Sc1cc3c(cc1Br)OCO3)n2CCCCCC(=O)NO`, with 160 to 169 °C; and `CCOC(=O)c1[nH]c2ccc(C)cc2c(=O)c1C`, with 190 to 193 °C; and `CC(=O)CC(=O)NC(=O)C(C)C`, with 148 to 160 °C.

In turn, `CCCN1CCC(c2c[nH]c3ccc(NS(C)(=O)=O)cc23)CC1` returned a melting point of 87 to 90 °C. The molecule `Cn1ccnc1COc1ccccc1N` registered a melting point of 114 to 116 °C. Turning to `CCCCCCCCC#CCC#CCC#CCSCC(=O)NCC`, the melting point is 59 °C. Consider `O=C(N[C@H](Cc1ccccc1C(F)(F)F)[C@@H](O)c1ccc(F)cc1)c1ccc(F)c2ccccc12` (racemic), for which the melting point was in the range of 200 to 201 °C. As to `O=C1Nc2ccc(Cl)cc2C2(c3cccs3)OCCN12` (stereo unspecified), the melting point lay in the range of 193 to 194 °C.

For the molecule `COCCOCCOCCOCCOc1ccc(N)cc1`, the melting point lay within 42 to 44 °C. In turn, `Cc1sc2c(c1C)C(c1ccc(Cl)cc1)=NC(CC(=O)NCCN)c1nnc(C)n1-2` (stereo unspecified) had a melting point of 142 to 146 °C. As for `CCN(CC)C(=O)c1nc(-c2ccccc2)c2ccccc2n1`, the melting point was 101 °C. The molecule `CCOC(=O)c1cc2c(F)cccc2nc1Cl` registered a melting point of 97 °C. In the case of `CCOC(=O)c1cncc(C#N)c1` it was 58 to 59 °C. Then `CNc1c(OC)cc(C(O)CS(C)(=O)=O)cc1OC` (stereo unspecified), with 141 to 142 °C.

In turn, `CC(Cc1ccccc1)C1CC=C2C3=C(CCC21C)C1(C)CCC(O)C(C)(C)C1CC3` (stereo unspecified) registered a melting point of 179 to 186 °C.

Molecule `Nc1ncnc2sc(Cc3ccccc3)c(-c3ccc([N+](=O)[O-])cc3)c12` gave a melting point of 231 to 233 °C. In turn, `COC(=O)C1(S(=O)(=O)N2CC=C(c3ccc(-c4ccccc4)c(C)c3)CC2)CCOCC1` displayed a melting point of 117 to 119 °C. For `Nc1cc2oc(=O)[nH]c2cc1[N+](=O)[O-]`, the melting point is 198 °C. Then `C(=Cc1ccc2c(c1)Sc1ccccc1N2c1ccccc1)c1ccc(-c2ccc(C=Cc3ccc4c(c3)Sc3ccccc3N4c3ccccc3)cc2)cc1`, with 278 to 290 °C; and `CCOc1ccc(-c2ncc[nH]2)cc1`, with 168 to 169 °C. In the case of `NC(=O)c1coc(-c2ccc(Oc3ccc(F)cc3)cc2)n1` it was 164 °C; in that of `O=C(O)CCC(=O)NNc1ccnc2c(NC(=O)c3c(Cl)cccc3Cl)cccc12`, 166 to 170 °C; in that of `CC(C)(C)OC(=O)Nc1ccc(C#Cc2nccs2)cc1N`, 182 °C. The molecule `O=C(NCc1ccccc1O)c1[nH]c2ccc(Cl)cc2c1S(=O)(=O)c1ccccc1` registered a melting point of 243 to 244 °C.

As for `COc1ccc2[nH]c3c(c2c1[N+](=O)[O-])CCC3O` (stereo unspecified), the melting point turned out to be 230 °C. `COc1ccc(C(=O)CC(SC(C)=O)C(=O)O)cc1` (stereo unspecified) showed a melting point of 122 to 124 °C.

In turn, `Cc1cc(CCCCCOc2cc(Cl)c(-c3nnc(C)o3)c(Cl)c2)on1` gave a melting point of 71 to 72 °C. In the case of `O=C(NC(Cc1cccc(Cl)c1)C(=O)N1CCSC1)c1cc2cc(Cl)ccc2[nH]1` (stereo unspecified) it was 188 to 190 °C. In the case of `O=C(N[C@@H](CO)C(=O)NCCCCOC1CCCCC1)c1ccc(C(=O)c2cccnc2)cc1`, the melting point is 55 to 61 °C.

On to `COc1ncccc1Nc1c(NC(NC(=O)c2cc(F)cc(F)c2)C(C)(C)C)c(=O)c1=O` (stereo unspecified), for which the melting point was 221 to 223 °C. As for `O=C(Nc1ccccc1-c1nnc(CSCCOc2ccccc2)o1)N1CCCC1`, the melting point fell in the range of 184 to 185 °C. Then `CC(=O)OCC1CCC2C3CCC4=CC(=O)CCC4(C)C3CCC12C` (stereo unspecified), with 141 to 142 °C. In the case of `CCCc1sc(-c2ccccc2)nc1O` it was 86 to 87 °C; in that of `CCn1c(=O)c2c(N)n[nH]c2n(CC)c1=O`, 246 to 248 °C; in that of `CN(C)n1c(C(F)(F)F)n[nH]c1=O`, 138 °C.

For `COc1ccc(C=O)c(-c2ccc(O[Si](C)(C)C(C)(C)C)cc2)c1O`, the melting point was in the range of 103 to 106 °C. In turn, `NC(=O)c1cc(Br)ccc1Nc1ccncc1` displayed a melting point of 298 to 299 °C. Then `Cc1c(NCC(C)(C)NC(=O)OC(C)(C)C)c([N+](=O)[O-])c2nnnn2c1C`, with 153 to 155 °C; and `CC(C)N1C(=O)CCCc2cc(Nc3ncc(Cl)c(N[C@@H]4CCCC[C@H]4NS(C)(=O)=O)n3)ccc21`, with 141 to 143 °C; and `Cc1ccc(C)c(CNc2cccc(S(=O)(=O)O)c2)c1`, with > 275 °C. `CC(C)(C)OC(=O)NC(CNC(=O)Nc1ccccc1)C(=O)OCc1ccccc1` (stereo unspecified) yielded a melting point of 48 to 50 °C. As for `CC(=O)N[C@H]1CCC(=O)N2CCC[C@@H](C(=O)O)N2C1=O`, the melting point was > 250 °C. Then `C#Cc1ccnc(-c2cc([N+](=O)[O-])c(-c3ccccc3)cc2N)c1`, with 187 to 190 °C; and `CCOC(=O)CC(NCCCN(C)C)C(=O)O` (stereo unspecified), with 168 to 169 °C; and `COc1ccc2[nH]ccc2c1OCc1ccccc1`, with 83 to 84 °C. For `Cc1cc(C)cc(-c2nc3ncccc3o2)c1`, the melting point was in the range of 148 to 152 °C. Molecule `c1csc(C2NCCc3ccccc32)c1` (stereo unspecified) had a melting point of 114 to 116 °C. Consider `O=C(Nc1c(C(O)(C(F)(F)F)C(F)(F)F)ccc2ccccc12)c1ccc(I)cc1`, for which the melting point lay in the range of 189 to 190 °C.

`O=S(=O)(N[C@H](CO)C(CC(F)(F)F)CC(F)(F)F)c1ccc(Cl)cc1`: the melting point is 186 to 187 °C. In turn, `CC(c1oc2ccccc2c(=O)c1-c1cccc(F)c1)n1cnc2c(N)ncnc21` (stereo unspecified) displayed a melting point of 155 to 158 °C. Turning to `Oc1cccc2ccc3ccccc3c12`, the melting point lay in the range of 114 to 116 °C. The molecule `Cc1ccc(Cl)cc1N1CN(C)CN(C)C1=S` showed a melting point of 157 to 159 °C. On to `CCCOC(=O)C=CC1C(C(=O)O)C1(C)C` (stereo unspecified), for which the melting point came to 59 °C. For `O=C(Nc1cccc(-c2ccnc3c(C(=O)c4cccs4)cnn23)c1)c1ccco1`, the melting point is > 240 °C. For the molecule `O=C1C=C(c2ccc(OC(F)(F)F)cc2)CO1`, the melting point was 122 to 123 °C. Molecule `N#Cc1c[nH]c2c(NS(=O)(=O)c3cccc(Cl)c3)cccc12` showed a melting point of 204 to 205 °C. In turn, `CC(=O)SC(CC(=O)c1ccc(C)cc1C)C(=O)O` (stereo unspecified) registered a melting point of 101 to 102 °C.

The molecule `CCCCOc1ccc2c(C(F)(F)F)c(OC)ccc2c1C(=O)N(C)CC(=O)O` registered a melting point of 152 to 155 °C. In the case of `CCCc1nc2c(N)nc3ccccc3c2n1Cc1cc(-c2cccnc2)on1` it was 206 to 207 °C; in that of `O=C(COc1cccc(C(=O)O)c1)NCCNC(=O)COc1cccc(C(=O)O)c1`, 282 °C.

Source of the values: a melting point compilation (Tetko et al.; mined from patent text by program, amines drawn as free bases though some values may be those of a salt).
